Source: patent US11001561B2, “Pyrimidinone derivatives as SHP2 antagonists” (MERCK PATENT GMBH, priority 2019, dated 2021)
“Also recorded” adds a separate entry of the source. Where two headings read alike, the source gives them in different places.

Key:
[1] = target: Full length SHP2 protein (Recombinant Human SHP-2) (Homo sapiens (Human), UniProt Q06124); assay: SHP2 biochemical assay (DiFMUP substrate, activating peptide IRSI_2pY)
Description: The inhibition of SHP2 by compounds of the invention was monitored using the surrogate substrate DiFMUP after protein activation by a peptide bearing two appropriately spaced phosphotyrosine. […] The generation of the DiFMU product by activated SHP2 was monitored through Fluorescence measurement with a PerkinElmer Envision reader. The inhibitor dose response curves were analyzed with Genedata Screener.

[2] = system: pERK1/2 in KYSE520 cells; assay: p-Erk cellular assay in KYSE520 (Mesoscale); assay type: cell-based; conditions: Homo sapiens, KYSE-520, 2 h, read-out: pERK1/2 in Cell KYSE520 IC50
Description: p-Erk Cellular Assay in KYSE520: The effect of SHP2 inhibitors on pERK level was assessed using phospho-specific antibody using Mesoscale quantification platform. For measuring change in pERK levels using mesoscale, 30,000 cells of KYSE520 cells were plated in 96-well tissue culture treated plate in 175 μl volume of media. After an overnight incubation at 37° C., various SHP2 inhibitors were added in different concentration to each well maintaining duplicate wells across plates and incubated with compounds for 2 h at 37° C. followed by a wash with ice cold PBS buffer. The cells were then lysed in lysis buffer and processed and analyzed for p-ERK/ERK as per manufacturer's instructions (Mesoscale discovery, cat No. […]-3).

[3] = target: Kv11.1 (hERG) ion channel (Homo sapiens (Human), UniProt Q12809); assay: hERG patch clamp in Kv11.1 transfected HEK293 cells; assay type: cell-based
Sequence of Kv11.1 (hERG) ion channel (Q12809 whole entry): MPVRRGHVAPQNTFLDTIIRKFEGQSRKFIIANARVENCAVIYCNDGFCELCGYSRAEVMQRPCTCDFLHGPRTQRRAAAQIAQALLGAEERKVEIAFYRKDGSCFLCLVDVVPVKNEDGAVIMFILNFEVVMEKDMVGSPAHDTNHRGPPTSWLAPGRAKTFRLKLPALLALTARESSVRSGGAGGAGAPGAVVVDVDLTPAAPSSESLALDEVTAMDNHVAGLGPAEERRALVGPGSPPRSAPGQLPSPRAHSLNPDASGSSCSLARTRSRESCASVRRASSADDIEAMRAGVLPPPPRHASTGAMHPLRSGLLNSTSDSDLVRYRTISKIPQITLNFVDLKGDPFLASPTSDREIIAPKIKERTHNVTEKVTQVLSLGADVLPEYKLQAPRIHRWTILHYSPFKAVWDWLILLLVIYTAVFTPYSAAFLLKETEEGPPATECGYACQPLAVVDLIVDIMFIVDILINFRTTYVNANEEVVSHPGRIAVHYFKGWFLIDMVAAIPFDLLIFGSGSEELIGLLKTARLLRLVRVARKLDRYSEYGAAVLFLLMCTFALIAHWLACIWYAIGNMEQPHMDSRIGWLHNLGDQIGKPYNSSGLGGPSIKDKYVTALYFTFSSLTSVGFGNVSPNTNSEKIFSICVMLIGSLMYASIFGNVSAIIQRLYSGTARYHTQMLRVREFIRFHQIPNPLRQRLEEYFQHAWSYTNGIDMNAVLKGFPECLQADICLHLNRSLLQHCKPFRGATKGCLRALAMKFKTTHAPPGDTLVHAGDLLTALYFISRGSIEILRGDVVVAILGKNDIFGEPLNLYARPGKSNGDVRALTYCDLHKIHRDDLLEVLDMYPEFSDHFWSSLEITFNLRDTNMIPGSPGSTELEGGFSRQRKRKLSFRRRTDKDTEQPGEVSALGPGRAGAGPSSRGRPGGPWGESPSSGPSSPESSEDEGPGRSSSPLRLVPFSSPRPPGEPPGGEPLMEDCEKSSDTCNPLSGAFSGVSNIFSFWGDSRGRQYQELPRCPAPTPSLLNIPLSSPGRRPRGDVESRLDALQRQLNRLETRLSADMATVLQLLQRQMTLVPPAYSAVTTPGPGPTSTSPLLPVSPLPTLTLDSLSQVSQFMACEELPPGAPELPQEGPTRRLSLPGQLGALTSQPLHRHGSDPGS
Description: Inhibition of the ion channel hErg (or Kv11.1) current causes QT interval prolongation resulting in potentially fatal ventricular tachyarrhythmia called Torsade de Pointes.
hERG ion channel activity was assessed using a patch clamp technique in stable Kv11.1 (hERG) transfected human embryonic kidney cell line (HEK293). Whole cell recordings were carried out with an automated patch clamp device Patchliner™ from Nanion Technologies, Munich following manufacturer recommendation. Different concentrations of the test compound or reference, quinidine, were applied to whole cells suspension and current was measured using a pulse pattern with fixed amplitudes.

[4] = Pharmacokinetics in mouse (oral / intravenous); assay type: in vivo; conditions: female CD1 mice
Description: Female CD1 mice (N=3) received a single oral (gavage) or a single intravenous (bolus) injection of compound. […] Consecutive blood samples were taken sub-lingually under isofluorane inhalation from animals after 0.083 (IV), 0.25, 0.5, 1, 2, 4, 6 and 24 h and were further processed to obtain plasma. Samples were protein precipitated and analysed by LC/MS/MS.

[5] = target: auto-activated mutant protein SHP2 E76K (Homo sapiens (Human), UniProt Q06124, E76K); assay: SHP2 active mutant E76K biochemical assay with and without activating peptide
Sequence of auto-activated mutant protein SHP2 E76K (Q06124 whole entry E76K): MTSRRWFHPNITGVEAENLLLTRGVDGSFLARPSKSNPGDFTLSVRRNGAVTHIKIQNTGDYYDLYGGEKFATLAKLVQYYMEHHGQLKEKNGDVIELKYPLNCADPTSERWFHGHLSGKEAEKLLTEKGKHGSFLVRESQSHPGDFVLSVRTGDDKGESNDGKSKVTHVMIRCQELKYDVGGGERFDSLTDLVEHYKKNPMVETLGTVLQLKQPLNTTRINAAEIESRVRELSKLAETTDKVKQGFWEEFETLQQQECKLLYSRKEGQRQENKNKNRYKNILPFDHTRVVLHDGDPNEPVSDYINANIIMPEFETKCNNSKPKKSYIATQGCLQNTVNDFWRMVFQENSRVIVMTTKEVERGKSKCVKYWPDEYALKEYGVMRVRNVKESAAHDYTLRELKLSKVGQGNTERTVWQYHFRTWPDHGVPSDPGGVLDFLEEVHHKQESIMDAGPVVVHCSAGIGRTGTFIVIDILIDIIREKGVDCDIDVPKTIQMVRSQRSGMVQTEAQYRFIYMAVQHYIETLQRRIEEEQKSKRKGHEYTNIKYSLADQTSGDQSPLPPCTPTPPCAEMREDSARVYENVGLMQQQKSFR
Description: The inhibition of SHP2 by compounds of the invention was monitored using the surrogate substrate DiFMUP after protein activation by a peptide bearing two appropriately spaced phosphotyrosine. Full length SHP2 protein (Recombinant HumanSHP-2, E. coli derived Ser2Arg593, N-terminal 6His tag from R&D systems; 0.0.24 nM) was incubated with activating peptide, IRSI_2pY (New England Peptide, 140 nM) and DiFMUP (molecular probes, 80 uM) at RT in buffer (HEPES pH 7.2 60 mM, DDT 5 mM, KCl 75 mM, NaCl 75 mM, EDTA 1 mM, Tween 20 0.05%) in presence of compound (10 concentrations range, top concentration 50 μM) for 60 min. The generation of the DiFMU product by activated SHP2 was monitored through Fluorescence measurement with a PerkinElmer Envision reader. The inhibitor dose response curves were analyzed with Genedata Screener.

[6] = target: Recombinant human SHP2 protein (2-593) (Homo sapiens (Human), UniProt Q06124); assay: SPR binding assay
Sequence of Recombinant human SHP2 protein (2-593) (Q06124 2-593): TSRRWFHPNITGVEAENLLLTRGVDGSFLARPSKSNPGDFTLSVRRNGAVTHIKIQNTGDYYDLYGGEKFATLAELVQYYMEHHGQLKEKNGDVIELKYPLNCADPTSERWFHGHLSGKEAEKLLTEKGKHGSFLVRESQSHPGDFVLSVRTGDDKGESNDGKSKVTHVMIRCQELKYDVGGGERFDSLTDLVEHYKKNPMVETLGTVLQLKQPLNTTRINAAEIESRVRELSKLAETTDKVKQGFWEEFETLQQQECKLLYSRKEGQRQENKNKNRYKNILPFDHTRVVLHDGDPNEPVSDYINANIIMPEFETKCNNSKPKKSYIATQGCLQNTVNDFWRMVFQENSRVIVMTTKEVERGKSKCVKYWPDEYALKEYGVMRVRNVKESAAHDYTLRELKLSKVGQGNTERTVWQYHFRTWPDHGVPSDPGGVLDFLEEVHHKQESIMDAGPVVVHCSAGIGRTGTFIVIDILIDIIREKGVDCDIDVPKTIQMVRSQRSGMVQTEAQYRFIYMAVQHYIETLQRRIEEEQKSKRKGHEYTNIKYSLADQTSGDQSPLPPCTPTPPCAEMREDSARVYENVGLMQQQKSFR
Description: The immobilization buffer contained 20 mM HEPES/NaOH (pH 7.4), 150 mM NaCl, 0.05% Tween 20. Inhibitors (stored as 10 mM stock solutions in 100% DMSO) were diluted in running buffer (20 mM HEPES/NaOH pH 7.4, 150 mM NaCl, 1 mM DTT, 5 mM MgCl2 0.1 mM EGTA, 0.05% Tween 20, 2% DMSO @25° C.) and analysed with a Biacore 4000 (Biacore AB, GE Healthcare Life Sciences, Uppsala, Sweden) using a 2-fold dilution series. The highest compound concentration varied according to the expected dissociation constant, but all compounds were tested at 10 different concentrations. Interaction analysis cycles were run at 30 μL/min and consisted of a 140 s sample injection followed by 600 s of buffer flow (dissociation phase). All sensograms were evaluated by first subtracting the binding response recorded from the control surface (reference spot), followed by subtracting a buffer blank injection. To determine kinetic rate constants, data sets were fitted to a simple 1:1 interaction model including a term for mass transport using numerical integration and nonlinear curve fitting. Equilibrium analysis was performed by fitting the response at the end of the association phase to a single-site binding isotherm.

[7] = system: Kyse-520 xenografts; assay: Kyse-520 xenograft (EGFR amplified esophageal cancer); conditions: H2D Rag2 mice, 10, 30 or 100 mg/kg daily oral gavage
Excerpt: H2D Rag2 mice were inoculated with 5 million KYSE-520 cells mixed with matrigel.
In vivo efficacy of compound 74a in an EGFR amplified setting was investigated in Kyse-520 xenografts. H2D Rag2 mice were inoculated with 5 million KYSE-520 cells mixed with matrigel.

[8] = system: MiaPaCa-2 xenografts; assay type: in vivo, mouse; conditions: H2D Rag2 mice, 50 or 100 mg/kg daily oral gavage
Excerpt: H2D Rag2 mice were inoculated with 3 million MiaPaCa-2 cells.

[9] = system: U87-MG xenografts; assay: U87-MG xenograft (PTEN LOF glioblastoma); assay type: in vivo, mouse; conditions: CD-1 nude mice, 50 mg/kg daily oral gavage, FIG. 6
Excerpt: CD-1 nude mice were inoculated with 10 million U87-MG cells.

[10] = system: EBC-1 xenografts; assay: EBC-1 xenograft (cMET amplified non-small cell lung cancer); assay type: in vivo; conditions: CD-1 nude mice, 100 mg/kg daily oral gavage
Excerpt: CD-1 nude mice were inoculated with 5 million EBC-1 cells.

[11] = system: HPAF-2 xenografts; conditions: CB17.SCID mice, 50 mg/kg 23B or 60 mg/kg RMC-4550 daily oral gavage

Sequence of Full length SHP2 protein (Recombinant Human SHP-2) (Q06124 2-593): as above

Cc1c(N2CCC3(CC2)CO[C@@H](C)[C@H]3N)nc(C)n(-c2cccc(Cl)c2Cl)c1=O (single isomer, unassigned) [Compound 23b]
IC50 ([1]; SHP-2 IC50 (nM) peptide, wild-type SHP-2, with activating peptide): 12 nM
IC50 ([1]; SHP-2 biochemical assay IC50 (μM), activating peptide IRSI_2pY 140 nM, DiFMUP, 60 min): 9 nM
IC50 [2]: 94 nM
Ki [3]: > 10000 nM
Fz [4]: 100%
clearance ([4]; mouse, plasma, intravenous): 15.5 mL/min/kg
Vd ([4]; mouse, plasma, intravenous, read-out: Vd ss): 4.64 L/kg
IC50 ([5]; SHP-2 E76Z IC50 (nM) No peptide, without activating peptide): 21 nM
IC50 ([5]; with activating peptide IRSI_2pY 140 nM, read-out: SHP-2 E76Z IC50 (nM) peptide): 12 nM
Kd [6]: 7.14 nM
tolerability [7]: All doses were well tolerated
tumor growth inhibition ([7]; FIG. 2): multiple dosage levels reduce growth of the tumor a significant amount; also recorded: dose-dependent significant tumor growth inhibition
tolerability [8]: All doses were well tolerated
tumor growth / regression [9]: reduces tumor size as compared to baseline; also recorded: Tumor regression
tolerability [10]: All doses were well tolerated
tumor growth inhibition ([10]; FIG. 7): reduces tumor growth; also recorded: Significant tumor growth inhibition
tolerability [11]: All doses were well tolerated
tumor inhibition ([11]; FIG. 5): Significant tumor inhibition
